Measurements from US20160243237A1, “EMULSIONS OF PERFLUOROCARBONS” (TENAX THERAPEUTICS, INC., priority 2009, published 2016).
Entries after “also recorded” stand apart in the source; their conditions may differ.

Key:
[1] = Mechanical stability of the emulsion with tonicity adjusters; type: physicochemical; details: tonicity adjuster compared with sodium chloride
Source text: Glycerin USP is used in the formulation to adjust the tonicity of the emulsion. For intravenous infusion, it is important that the tonicity of the emulsion be in the same physiological range as blood tonicity. Glycerin was chosen because it has a long history of use in parenteral emulsions and because it is not an ionizable species that could contribute to coalescence of the emulsion particles by disruption of the charged layer (zeta potential) surrounding the particles.

[2] = tested on: monkeys; test: Single-dose GLP toxicity study, pulmonary hyperinflation; type: in vivo; details: 60% and 20% w/v, compared with PFOB
Source text: (§1) Perfluoro(tert-butylcyclohexane) at both 60% and 20% w/v concentrations has been tested in controlled, single-dose Good Laboratory Practice (GLP) toxicity studies in rats and monkeys. […] Nevertheless, perfluoro(tert-butylcyclohexane) represents a better balance between persistence and the tendency to produce hyperinflated, non-collapsible lungs than what is seen with PFOB and perfluorodecalin.

[3] = Solubility of FtBu in water and solvents; type: physicochemical; details: room temperature
Source text: FtBu is most soluble in halogenated solvents such as isoflurane. Therefore, FtBu needs to be formulated as an aqueous emulsion for intravenous administration.

[4] = Physical properties of perfluoro(tert-butylcyclohexane); type: physicochemical
Source text: Physical properties of perfluoro(tert-butylcyclohexane) are as follows: […]

[5] = Gas carrying capacity (oxygen, CO2); type: physicochemical; details: at body temperature
Protocol: Perfluoro(tert-butylcyclohexane) can carry about 43 mL of oxygen per 100 mL of PFC, and 196 mL of CO2 per 100 mL of PFC at body temperature.
FtBu can dissolve and release large amounts of gases, including the blood gases oxygen and carbon dioxide. […] As such, no sinusoidal release curve of oxygen is encountered. The transport and release of oxygen and other gases by FtBu is a simple passive process, the quantity of gas dissolved is linearly related to its partial pressure, essentially following Henry's Law.
In the body the PFC emulsion is capable of uploading and unloading oxygen and CO2 more efficiently than blood, (at a FtBu concentration of 60% w/v, Oxycyte® can dissolve 3-4 times the amount of oxygen than human hemoglobin can off-load under normal physiological conditions) and this process is concentration-gradient mediated (Henry's Law). Because the median size of the PFC droplets is approximately 40-50 times smaller than an erythrocyte, Oxycyte® is able to oxygenate tissues with narrowed capillaries, as occurs in brain contusions. After about 10 hours, half of an intravenous dose of 3 mL/kg remains in the circulation. PFCs are eliminated from the blood when macrophages scavenge the lipid particles. This is quite similar to how Intralipid® is transported from the blood stream. PFCs are deposited in the liver and spleen. […]

[6] = tested on: rats and monkeys; test: Single-dose GLP toxicity studies, absorption and persistence; type: in vivo
Source text: as §1

[7] = tested on: skin tissue; test: Measuring oxygen tension in tissue with fluorescent marker (Example 3); type: in vivo; details: skin area treated with PFC
Protocol: A material which binds oxygen (fluorescent marker) is injected into skin tissue. The combination is fluorescent and the more oxygen that is present, the stronger the fluorescent signal. (representing the oxygen tension in the tissue). First it is determined that fluorescence chemistry is unaffected by the PFCs and poloxamers. Then as a control, the fluorescent marker is injected into the skin, and oxygen tension is obtained. Finally, the same area is treated with a PFC, PFC emulsion or a PFC gel and oxygen tension is again obtained.

Row | mechanical stability of the emulsion [1] | solubility in 2,2,4-trimethylpentane(isooctane) [3] | solubility in halogenated solvents such as isoflurane [3] | solubility in water [3] | Density [4] [g/mL] | Kinematic Viscosity [4] [cP] | Vapor Pressure @ 25° C. ([4]; 25° C.) [mmHg] | Vapor Pressure @ 37° C. ([4]; 37° C.) [mmHg] | CO2 carried [5] | oxygen carried [5] | Structure (SMILES) | degree of pulmonary hyperinflation [2] | persistence in liver and spleen (RES half-life) ([6]; compared with PFOB) | absorption in the body ([6]; single dose) | local oxygen tension in the tissue [7]
1 | superior to sodium chloride |  |  |  |  |  |  |  |  |  | OCC(O)CO [glycerin, Glycerin] |  |  |  | 
2 | superior to sodium chloride |  |  |  |  |  |  |  |  |  | OC[C@@H](O)[C@@H](O)[C@H](O)[C@H](O)CO [mannitol] |  |  |  | 
3 |  | only minimal solubility | most soluble | virtually insoluble in water | 1.97 | 5.378 | 3.8 | 4.4 | ~196 mL of CO2 per 100 mL of PFC | about 43 mL of oxygen per 100 mL of PFC | FC(F)(F)C(C(F)(F)F)(C(F)(F)F)C1(F)C(F)(F)C(F)(F)C(F)(F)C(F)(F)C1(F)F [perfluoro(tert-butylcyclohexane), 1-(1,1-bis(trifluoromethyl)-2,2,2-trifluoroethyl)-1,2,2,3,3,4,4,5,5,6,6-undecafluorocyclohexane] | significantly less than that seen in monkeys treated with PFOB; also recorded: correspondingly lesser propensity to cause pulmonary hyperinflation | somewhat longer than what has been reported for PFOB; also recorded: somewhat longer than that of the benchmark perfluorocarbon, PFOB | generally comparable to what has been reported for other PFCs | substantially increases local oxygen tension
